Our source for the Activity values is ChEMBL document CHEMBL1123962, “Chemical aspects of metoprolol metabolism. Asymmetric synthesis and absolute configuration of the 3-[4-(1-hydroxy-2-methoxyethyl)phenoxy]-1-(isopropylamino)-2-propanols , the diastereomeric benzylic hydroxylation metabolites” (J Med Chem, 1988).

The structures appear in SMILES notation.

The species named for assay [1] is Rattus norvegicus. Put plainly: Stereoselectivity in presence of rat liver microsomes. It is filed as functional. For orientation: Microsomes from liver hold many membrane-bound enzymes, among them those of drug oxidation.
The species entered for assay [2] is Rattus norvegicus. Put plainly: Product stereoselectivity in presence of rat liver microsomes. Type of assay: functional.

Consider `COCCc1ccc(OCC(O)CNC(C)C)cc1` (racemic), for which the Activity in the assay filed under Rattus norvegicus [1] was found to be 93.2%.

For `COCCc1ccc(OC[C@@H](O)CNC(C)C)cc1`, the Activity in the assay filed under Rattus norvegicus [2] came out at 96.3%.

As to `COCCc1ccc(OC[C@H](O)CNC(C)C)cc1`, the Activity in the assay filed under Rattus norvegicus [1] turned out to be 90.4%.
